Measured values reported in ChEMBL document CHEMBL1201862, “PubChem BioAssay data set” (2004).
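Protocol summary: plate cells (96-well), add compound at 5 concentrations, incubate 48 h, interpolate endpoints linearly. GI50 marks 50% less growth.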 The source made the active and inactive calls. No stated cut-off is given here; in the data, active = GI50 up to about 1.1 µM and inactive = higher.

How the values were obtained:
Assay in all cases: NCI-60 cell line screen, 48 h
NCI-H460 = tested on: NCI-H460
MDA-MB-231 = tested on: MDA-MB-231
SNB-19 = tested on: SNB-19
A498 = tested on: A498
MCF7 = tested on: MCF7
LOX IMVI = tested on: LOX IMVI
UACC-257 = tested on: UACC-257
CCRF-CEM = tested on: CCRF-CEM
ACHN = tested on: ACHN
UO-31 = tested on: UO-31
OVCAR-3 = tested on: OVCAR-3
SF-268 = tested on: SF-268
NCI-H226 = tested on: NCI-H226
KM12 = tested on: KM12
HL-60 = tested on: HL-60
HCC 2998 = tested on: HCC 2998
OVCAR-5 = tested on: OVCAR-5
SNB-75 = tested on: SNB-75
HOP-92 = tested on: HOP-92
SK-MEL-28 = tested on: SK-MEL-28

Measured: GI50

Clc1cc(Cl)c2cc3cccc[n+]3cc2c1Cl
inactive: NCI-H460 16.3 µM | MDA-MB-231 17.9 µM | SNB-19 14.9 µM | A498 18.6 µM | MCF7 14.2 µM | LOX IMVI 15.7 µM | UACC-257 15.2 µM | CCRF-CEM 12.1 µM | ACHN 16.3 µM | UO-31 15.1 µM | OVCAR-3 12.1 µM | SF-268 12.8 µM | NCI-H226 16.4 µM | KM12 > 10 µM | HL-60 12.7 µM | HCC 2998 17.1 µM | OVCAR-5 19.2 µM | SNB-75 12 µM | HOP-92 5.87 µM | SK-MEL-28 15.5 µM

O=C1C(Nc2ccc(S(=O)(=O)Nc3cnc4ccccc4n3)cc2)=C/C(=N\c2ccc(S(=O)(=O)Nc3cnc4ccccc4n3)cc2)c2ccccc21
inactive: NCI-H460 16.7 µM | MDA-MB-231 23.1 µM | SNB-19 15.3 µM | A498 15.3 µM | MCF7 19.5 µM | LOX IMVI 16.2 µM | UACC-257 37.7 µM | CCRF-CEM 24 µM | ACHN 30.7 µM | UO-31 15.6 µM | OVCAR-3 19.8 µM | SF-268 20 µM | NCI-H226 20.6 µM | KM12 16.9 µM | HL-60 27.9 µM | HCC 2998 17.5 µM | OVCAR-5 16.3 µM | SNB-75 14.6 µM | HOP-92 15 µM | SK-MEL-28 18.1 µM

C[C@]12C(=O)OC[C@H](c3ccccc3)N1C(=O)N(Cc1ccccc1)[C@@H]2CO
inactive: NCI-H460 > 100 µM | MDA-MB-231 > 100 µM | SNB-19 > 100 µM | A498 > 100 µM | MCF7 > 100 µM | LOX IMVI > 100 µM | UACC-257 > 100 µM | CCRF-CEM > 100 µM | ACHN > 100 µM | UO-31 > 100 µM | OVCAR-3 > 100 µM | SF-268 > 100 µM | NCI-H226 > 100 µM | KM12 > 100 µM | HL-60 > 100 µM | HCC 2998 > 100 µM | OVCAR-5 > 100 µM | SNB-75 45.6 µM | HOP-92 > 100 µM | SK-MEL-28 > 100 µM

CS(=O)(=O)c1ccc(C2=C(c3ccccc3)C(=O)OC2)cc1 [ROFECOXIB]
inactive: NCI-H460 > 100 µM | MDA-MB-231 > 100 µM | SNB-19 > 100 µM | A498 > 100 µM | MCF7 > 100 µM | LOX IMVI > 100 µM | UACC-257 > 100 µM | CCRF-CEM > 100 µM | ACHN > 100 µM | UO-31 > 100 µM | OVCAR-3 > 100 µM | SF-268 > 100 µM | NCI-H226 > 100 µM | KM12 > 100 µM | HL-60 > 100 µM | HCC 2998 > 100 µM | OVCAR-5 > 100 µM | SNB-75 > 100 µM | HOP-92 > 100 µM | SK-MEL-28 > 100 µM
